Experimental data reported in US12576099B2, “Ribose-modified cap analog and use thereof” (Beijing Youcare Kechuang Pharmaceutical Technology Co., Ltd., priority 2024, dated 2026).

Tests used:
HEK293T cells = assay: Translation efficiency of different capped luciferase mRNAs; type: cell-based; details: for Relative fluorescence intensity: HEK293T, 0.5 μg mRNA per well, 24 hours, proportional to translation efficiency; for Multiple of m6A (relative fluorescence intensity): relative to m6A
Protocol: • (1) HEK293T cells were cultured in DMEM medium containing 10% FBS and penicillin/streptomycin at 37° C. with 5% CO2. • (2)Cells in the culture dish were digested and counted, then spread in a 96-well plate at 10,000 cells per well, and cultured overnight until the cells adhered to the wall. • (3) When the cell density reached approximately 80%, transfection was performed by adding 0.5 μg of mRNA sample and Lipofectamine MessengerMAX Transfection Reagent (Invitrogen) per well according to the manufacturer's instructions. • (4) After the transfected cells were cultured at 37° C. with 5% CO2 for 24 hours, the growth medium was removed from the cells to be tested, and the cells were rinsed with PBS. After centrifugation to remove PBS, 50 μL of 1× lysis buffer was added. The cells and all liquid were transferred to a microcentrifuge tube and centrifuged. • (5) 20 μL of sample was taken and added to 100 μL of Dual-Lumi™ II Luciferase Assay Reagent pre-equilibrated to room temperature, and mixed appropriately. • (6) The mixture was incubated at room temperature (approximately 25° C.) for 5 minutes to stabilize the luminescence signal. Chemiluminescence was detected using a multifunctional microplate reader with a function for detecting chemiluminescence, and the data were recorded.
The relative fluorescence intensity is proportional to the translation efficiency of mRNA.

BALB/C mice = assay: In vivo imaging of Fluc-mRNA LNP expression in mice
Protocol: The LNP preparation containing 5 μg of cap analog-transcribed Fluc-mRNA was intramuscularly injected into female BALB/C mice aged 4 to 6 weeks and weighing 17 to 19 g. At specific time points after administration (6 hours, 12 hours, 24 hours, 48 hours, 96 hours, and 168 hours), the mice were intraperitoneally injected with fluorescence imaging substrate. The mice were then allowed to move freely for 5 minutes, followed by detection of the total radiation intensity of the protein expressed by LNP-carrying mRNA in the mice using an IVIS Spectrum small-animal in vivo imaging system (corresponding to the amount of protein expression).
In the in vivo imaging experiments in mice, the multiple of the total radiation intensity for each group of mice relative to the m6A group is shown in Table 8 (where the total radiation intensity is represented as the given value×10^8 p/s).

[1] = Characterization of lipid nanoparticles encapsulating Fluc-mRNA prepared from different cap structures; type: physicochemical; details: for Particle size: LNP (YK-009/DSPC/cholesterol/DMG-PEG2000) with Fluc-mRNA transcribed using the named cap analog; for PDI: LNP with Fluc-mRNA transcribed using the named cap analog; for EE: encapsulation efficiency of LNP with Fluc-mRNA transcribed using the named cap analog
Protocol: Cationic lipid YK-009 (Beijing Youcare Kechuang Pharmaceutical Technology Co., Ltd.), DSPC (AVT (Shanghai) Pharmaceutical Technology Co., Ltd.), cholesterol (AVT (Shanghai) Pharmaceutical Technology Co., Ltd.), and DMG-PEG2000 were dissolved in ethanol at a molar ratio of 49:10:39.5:1.5, and the mRNA was diluted in 50 mM citrate buffer (pH=4). The ethanol lipid solution was mixed with the Fluc-mRNA aqueous solution prepared from different cap structures at a volume ratio of 1:3 using a microfluidic device at a flow rate of 10 mL/min to prepare LNPs at a weight ratio of total lipid to mRNA of approximately 15:1.
The resulting liposomes were diluted to 10-fold volume with PBS, and then ultrafiltered with a 300 KDa ultrafiltration tube to remove ethanol. The volume was then fixed to a certain volume with PBS. Finally, the LNPs were filtered through a 0.2 μm sterile filter to obtain an LNP preparation encapsulating Fluc-mRNA using YK-009/DSPC/cholesterol/DMG-PEG2000 (at a molar ratio of 49:10:39.5:1.5).
The particle size and polydispersity index (PDI) were determined by dynamic light scattering using a Malvern laser particle size analyzer. 10 μL of the liposome solution was taken, diluted to 1 mL with RNase-free deionized water, and added to a sample pool. Each sample was measured in triplicate. The measurement conditions were: a scattering angle of 90° and a temperature of 25° C. The encapsulation efficiency of LNPs was determined using the Quant-iT RiboGreen RNA Quantification Kit (Thermo Fisher Scientific, UK) according to the manufacturer's instructions.

DCP2 enzyme = molecular target: T1, DCP2 enzyme (Schizosaccharomyces pombe, UniProt O13828); assay: Decapping enzyme stability test; type: biochemical; details: for Decapping rate (%) of DCP2 enzyme: 50 U mRNA decapping enzyme, 37° C., 45 minutes
T1 construct: purchased New England Biolabs
T1 sequence (O13828 1-243 limits assumed): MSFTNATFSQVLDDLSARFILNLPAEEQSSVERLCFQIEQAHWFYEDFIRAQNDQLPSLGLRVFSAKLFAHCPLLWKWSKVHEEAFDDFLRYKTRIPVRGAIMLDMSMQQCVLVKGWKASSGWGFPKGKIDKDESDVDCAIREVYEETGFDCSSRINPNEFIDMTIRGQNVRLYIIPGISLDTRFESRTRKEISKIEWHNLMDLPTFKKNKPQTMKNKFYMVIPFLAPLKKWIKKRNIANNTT
T1 sequence (Q9P805 1-127 partner): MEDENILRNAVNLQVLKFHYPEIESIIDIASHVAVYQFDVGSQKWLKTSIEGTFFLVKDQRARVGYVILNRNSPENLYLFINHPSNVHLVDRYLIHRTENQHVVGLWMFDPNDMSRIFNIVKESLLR
T1 sequence (Q10108 155-180 partner limits assumed): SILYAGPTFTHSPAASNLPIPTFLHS
Protocol: […] of RNA purified by polyacrylamide gel electrophoresis (PAGE) was subjected to an enzymatic reaction with 50 U of mRNA decapping enzyme (New England Biolabs) and 1×MDE buffer at 37° C. for 45 minutes. The enzymatic reactants were subjected to PAGE and stained with SYBR Green II (Lonza), followed by observation of the post-electrophoresis gel image on a Typhoon FLA 7000 (GE Healthcare) instrument. The electrophoresis band intensity ratio of RNA capping to RNA decapping was counted using ImageQuant (GE Healthcare) software, and the decapping rate of the decapping enzyme was calculated.

[2] = 6 h, 5 μg Fluc-mRNA LNP intramuscular, mice
[3] = 12 h, 5 μg Fluc-mRNA LNP intramuscular, mice
[4] = 24 h, 5 μg Fluc-mRNA LNP intramuscular, mice
[5] = 48 h, 5 μg Fluc-mRNA LNP intramuscular, mice
[6] = 96 h, 5 μg Fluc-mRNA LNP intramuscular, mice
[7] = 168 h, 5 μg Fluc-mRNA LNP intramuscular, mice

Row | Particle size [1] [nm] | PDI [1] | EE [1] [%] | Decapping rate (%) of DCP2 enzyme (DCP2 enzyme) [%] | Decrease relative to N-7113 (decapping rate) (DCP2 enzyme) [%] | Compound | Relative fluorescence intensity (HEK293T cells) | Multiple of m6A (relative fluorescence intensity) (HEK293T cells) | Multiple of total radiation intensity relative to m6A (BALB/C mice; 6 h) | Total radiation intensity (BALB/C mice; [2]) | Multiple of total radiation intensity relative to m6A (BALB/C mice; 12 h) | Total radiation intensity (BALB/C mice; [3]) | Multiple of total radiation intensity relative to m6A (BALB/C mice; 24 h) | Total radiation intensity (BALB/C mice; [4]) | Multiple of total radiation intensity relative to m6A (BALB/C mice; 48 h) | Total radiation intensity (BALB/C mice; [5]) | Multiple of total radiation intensity relative to m6A (BALB/C mice; 96 h) | Total radiation intensity (BALB/C mice; [6]) | Total radiation intensity (BALB/C mice; [7]) | Total radiation intensity (BALB/C mice; at 12 hours) | Total radiation intensity (BALB/C mice; at 48 hours)
1 | 81.34 | 0.035 | 96.3 | 28.3 | 15.5 | CCO[C@@H]1[C@H](OP(=O)(O)OC[C@H]2O[C@@H](n3cnc4c(=O)[nH]c(N)nc43)[C@H](O)[C@@H]2O)[C@@H](COP(=O)(O)OP(=O)(O)OP(=O)(O)OC[C@H]2O[C@@H]([n+]3cn(C)c4c(=O)[nH]c(N)nc43)[C@H](O)[C@@H]2O)O[C@H]1n1cnc2c(N)ncnc21 [CAP-2′O-ethyl, reference compound] | 1.13 | 3.0 | 2.3 | 5.41 ×108 p/s | 2.3 | 4.80 ×108 p/s | 2.6 | 1.73 ×108 p/s | 1.1 | 0.57 ×108 p/s | 2.4 | 0.09 ×108 p/s | 0.02 ×108 p/s |  | 
2 | 75.35 | 0.058 | 95.1 | 23.3 | 20.5 | COC[C@H]1[C@@H](O)[C@H]([n+]2cn(C)c3c(=O)[nH]c(N)nc32)O[C@@H]1COP(=O)(O)OP(=O)(O)OP(=O)(O)OC[C@H]1O[C@@H](n2cnc3c(N)ncnc32)[C@H](OC)[C@@H]1OP(=O)(O)OC[C@H]1O[C@@H](n2cnc3c(=O)[nH]c(N)nc32)[C@H](O)[C@@H]1O [HN3002, reference compound] |  | 3.0 |  |  |  |  |  |  |  |  |  |  |  |  | 
3 | 87.45 | 0.078 | 96.1 | 43.8 | 0.0 | CO[C@@H]1[C@H](OP(=O)(O)OC[C@H]2O[C@@H](n3cnc4c(=O)[nH]c(N)nc43)[C@H](O)[C@@H]2O)[C@@H](COP(=O)(O)OP(=O)(O)OP(=O)(O)OC[C@H]2O[C@@H]([n+]3cn(C)c4c(=O)[nH]c(N)nc43)[C@H](O)[C@@H]2O)O[C@H]1n1cnc2c(N)ncnc21 [N-7113, reference compound] | 1.00 | 2.6 | 2.2 | 5.10 ×108 p/s | 2.0 | 4.33 ×108 p/s | 2.3 | 1.49 ×108 p/s | 0.9 | 0.49 ×108 p/s | 2.4 | 0.05 ×108 p/s | 0.02 ×108 p/s | 4.33 ×10^8 p/s | 0.49 ×10^8 p/s
4 | 75.76 | 0.047 | 93.8 | 33.8 | 10.0 | CNc1ncnc2c1ncn2[C@@H]1O[C@H](COP(=O)(O)OP(=O)(O)OP(=O)(O)OC[C@H]2O[C@@H]([n+]3cn(C)c4c(=O)[nH]c(N)nc43)[C@H](O)[C@@H]2O)[C@@H](OP(=O)(O)OC[C@H]2O[C@@H](n3cnc4c(=O)[nH]c(N)nc43)[C@H](O)[C@@H]2O)[C@H]1OC [m6A, reference compound] | 0.38 | 1.0 | 1.0 | 2.35 ×108 p/s | 1.0 | 2.12 ×108 p/s | 1.0 | 0.66 ×108 p/s | 1.0 | 0.52 ×108 p/s | 1.0 | 0.08 ×108 p/s | 0.02 ×108 p/s | 2.12 ×10^8 p/s | 0.52 ×10^8 p/s
